Measurements from ChEMBL document CHEMBL1150469, “The conserved acid binding domain model of inhibitors of protein phosphatases 1 and 2A: Molecular modelling aspects” (Bioorg Med Chem Lett, 1993).

Key:
[1] = organism: Mus musculus; assay: Tested for inhibition of specific [3H]- okadaic acid binding to the cytosolic fraction of mouse skin; type: functional
[2] = organism: Mus musculus; assay: Tested for inhibition of specific [3H]- okadaic acid binding to the cytosolic fraction of mouse liver.; type: functional
[3] = organism: Mus musculus; assay: Tested for intra peritoneal dose at which compound dose not show toxicity in mouse; type: functional, organism-based
[4] = organism: Mus musculus; assay: Tested for inhibition of specific [3H]- okadaic acid binding to the cytosolic fraction of mouse skin.; type: functional

Row | SMILES | ED50 [1] | ED50 [2] | DOSE [3] | ED50 [4]
1 | C=C1C(=O)N[C@H](C)C(=O)N[C@@H](CC(C)C)C(=O)N[C@@H](C(=O)O)[C@H](C)C(=O)N[C@@H](CCCNC(=N)N)C(=O)N[C@@H](/C=C/C(C)=C/[C@H](C)[C@H](Cc2ccccc2)OC)[C@H](C)C(=O)N[C@@H](C(=O)O)CCC(=O)N1C (stereo in doubt; form 1) | 68 nM | – | – | –
2 | C=C1C(=O)N[C@H](C)C(=O)N[C@@H](CC(C)C)C(=O)N[C@@H](C(=O)O)[C@H](C)C(=O)N[C@@H](CCCNC(=N)N)C(=O)N[C@@H](/C=C/C(C)=C/[C@H](C)[C@H](Cc2ccccc2)OC)[C@H](C)C(=O)N[C@@H](C(=O)O)CCC(=O)N1C (stereo in doubt; form 2) | 8 nM | 1.3 nM | 1 mg/kg | –
3 | COC[C@@H]([C@H](O)[C@H](O)C(=O)NCC[C@H](C)c1nc(/C=C/C[C@@H]2O[C@]3(C[C@@H](O)[C@@H]2C)O[C@H]([C@H](C[C@H](O)[C@H](C)[C@H](O)[C@H](C)/C=C(C)/C(C)=C/C=C/C(C)=C\C#N)OC)[C@H](OP(=O)(O)O)C3(C)C)co1)N(C)C [CALYCULIN A] | 2.8 nM | – | – | –
4 | C=C1[C@@H](O)[C@@H]2O[C@]3(CC[C@H](/C=C/[C@@H](C)[C@@H]4CC(C)=C[C@@]5(O[C@H](C[C@@](C)(O)C(=O)O)CC[C@H]5O)O4)O3)CC[C@H]2O[C@@H]1[C@@H](O)C[C@H](C)[C@H]1O[C@@]2(CCCCO2)CC[C@H]1C [OKADAIC ACID] | – | 3.2 nM | – | 2.8 nM
